Patent US10112926B2 (priority 2014, dated 2018)
Where a name gives a salt, the structure may show the parent alone.

Assays:
Vps34 = Vps34 (Homo sapiens (Human), UniProt Q8NEB9); details: read-out: Assay C VPS34 IC50
PI 4-kinase beta = PI 4-kinase beta (Homo sapiens (Human), UniProt Q9UBF8); details: read-out: Assay D PI4Kβ IC50
Sequence of PI 4-kinase beta (Q9UBF8 whole entry): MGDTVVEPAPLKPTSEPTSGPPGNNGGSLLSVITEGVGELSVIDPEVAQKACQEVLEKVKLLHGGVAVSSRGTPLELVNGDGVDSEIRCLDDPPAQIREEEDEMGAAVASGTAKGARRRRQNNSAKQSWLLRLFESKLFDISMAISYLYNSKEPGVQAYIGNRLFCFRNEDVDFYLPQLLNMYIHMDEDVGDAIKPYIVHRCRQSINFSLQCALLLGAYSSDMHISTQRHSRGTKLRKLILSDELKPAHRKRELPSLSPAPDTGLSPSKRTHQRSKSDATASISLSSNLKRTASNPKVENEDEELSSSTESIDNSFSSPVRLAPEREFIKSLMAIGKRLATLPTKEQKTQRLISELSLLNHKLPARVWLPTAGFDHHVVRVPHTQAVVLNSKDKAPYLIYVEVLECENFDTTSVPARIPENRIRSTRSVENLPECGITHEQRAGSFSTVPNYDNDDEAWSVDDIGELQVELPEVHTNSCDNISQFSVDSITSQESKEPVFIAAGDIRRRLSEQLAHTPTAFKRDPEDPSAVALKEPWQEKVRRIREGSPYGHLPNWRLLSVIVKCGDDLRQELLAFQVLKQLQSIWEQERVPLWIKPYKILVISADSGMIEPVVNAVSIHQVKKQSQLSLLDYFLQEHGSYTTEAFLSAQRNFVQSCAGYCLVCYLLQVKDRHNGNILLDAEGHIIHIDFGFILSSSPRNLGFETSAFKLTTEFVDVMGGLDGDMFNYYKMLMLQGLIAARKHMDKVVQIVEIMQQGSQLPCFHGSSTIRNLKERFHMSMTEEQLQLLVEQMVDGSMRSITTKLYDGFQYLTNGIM

Sequence of Vps34 (Q8NEB9 whole entry): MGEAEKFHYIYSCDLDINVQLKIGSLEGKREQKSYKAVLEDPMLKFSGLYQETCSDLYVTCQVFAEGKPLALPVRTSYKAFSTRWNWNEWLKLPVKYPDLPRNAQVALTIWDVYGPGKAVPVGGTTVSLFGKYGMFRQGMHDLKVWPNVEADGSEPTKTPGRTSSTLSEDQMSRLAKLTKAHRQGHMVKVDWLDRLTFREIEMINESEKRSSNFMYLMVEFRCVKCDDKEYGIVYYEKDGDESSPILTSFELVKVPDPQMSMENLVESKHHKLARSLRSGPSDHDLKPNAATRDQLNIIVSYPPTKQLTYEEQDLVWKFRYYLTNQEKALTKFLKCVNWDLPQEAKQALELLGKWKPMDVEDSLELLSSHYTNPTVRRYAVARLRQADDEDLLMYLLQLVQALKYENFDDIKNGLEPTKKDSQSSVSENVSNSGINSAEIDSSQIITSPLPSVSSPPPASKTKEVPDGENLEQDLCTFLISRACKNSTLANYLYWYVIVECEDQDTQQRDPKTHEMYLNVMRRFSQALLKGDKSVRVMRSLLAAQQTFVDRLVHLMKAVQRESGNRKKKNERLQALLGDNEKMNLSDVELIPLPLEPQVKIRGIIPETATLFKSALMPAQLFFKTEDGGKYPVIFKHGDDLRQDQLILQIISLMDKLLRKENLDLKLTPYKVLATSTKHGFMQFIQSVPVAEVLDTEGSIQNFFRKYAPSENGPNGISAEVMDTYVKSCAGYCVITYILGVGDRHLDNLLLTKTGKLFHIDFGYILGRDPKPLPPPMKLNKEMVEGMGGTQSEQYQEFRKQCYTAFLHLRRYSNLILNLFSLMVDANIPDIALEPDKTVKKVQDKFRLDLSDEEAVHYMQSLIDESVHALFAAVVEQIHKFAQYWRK

Row | Structure (SMILES) | IC50 (Vps34) [µM] | IC50 (PI 4-kinase beta) [µM]
1 | Cc1noc(-c2cc(-c3cc(S(=O)(=O)NC4CC(F)(F)C4)ccc3C)cnc2N)n1 [Example 37.17, 3-(6-Amino-5-(3-methyl-1,2,4-oxadiazol-5-yl)pyridin-3-yl)-N-(3,3-difluorocyclobutyl)-4-methylbenzenesulfonamide] | > 10 | 8.6
2 | Cc1noc(-c2cc(-c3cc(S(=O)(=O)NCC4(O)CC4)ccc3C)cnc2N)n1 [Example 37.19, 3-(6-Amino-5-(3-methyl-1,2,4-oxadiazol-5-yl)pyridin-3-yl)-N-((1-hydroxycyclopropyl)methyl)-4-methylbenzenesulfonamide] | > 10 | 8.6
3 | Cc1noc(-c2cc(-c3cc(S(=O)(=O)NCCC4(O)CCCCC4)ccc3C)cnc2N)n1 [Example 37.31, 3-(6-Amino-5-(3-methyl-1,2,4-oxadiazol-5-yl)pyridin-3-yl)-N-(2-(1-hydroxycyclohexyl)ethyl)-4-methylbenzenesulfonamide] | > 10 | 6.2
4 | Cc1cc(-c2cc(-c3cc(S(=O)(=O)NC[C@@H]4CCOC4)ccc3C)cnc2N)on1 [Example 38, (S)-3-(6-Amino-5-(3-methylisoxazol-5-yl)pyridin-3-yl)-4-methyl-N-((tetrahydrofuran-3-yl)methyl)benzenesulfonamide] | > 10 | 3.1
5 | Cc1noc(-c2cc(-c3cc(S(=O)(=O)NCC4(O)CCOCC4)ccc3C)cnc2N)n1 [Example 51, 3-(6-Amino-5-(3-methyl-1,2,4-oxadiazol-5-yl)pyridin-3-yl)-N-((4-hydroxytetrahydro-2H-pyran-4-yl)methyl)-4-methylbenzenesulfonamide] | > 10 | > 10
6 | Cc1noc(-c2cc(-c3cc(S(=O)(=O)NCC4(CO)COC4)ccc3C)cnc2N)n1 [Example 52, 3-(6-Amino-5-(3-methyl-1,2,4-oxadiazol-5-yl)pyridin-3-yl)-N-((3-(hydroxymethyl)oxetan-3-yl)methyl)-4-methylbenzenesulfonamide] | > 10 | > 10
7 | Cc1noc(-c2cc(-c3cc(S(=O)(=O)NO[C@H]4C[C@H](O)C4)ccc3C)cnc2N)n1 [Example 55, trans-3-(6-Amino-5-(3-methyl-1,2,4-oxadiazol-5-yl)pyridin-3-yl)-N-(3-hydroxycyclobutoxy)-4-methylbenzenesulfonamide] | > 10 | 4.7
8 | Cc1noc(-c2cc(-c3cc(S(=O)(=O)NCC4(O)COC4)ccc3C)cnc2N)n1 [Example 56, 3-(6-Amino-5-(3-methyl-1,2,4-oxadiazol-5-yl)pyridin-3-yl)-N-((3-hydroxyoxetan-3-yl)methyl)-4-methylbenzenesulfonamide] | > 10 | > 10
9 | Cc1nc(-c2cc(-c3cc(S(=O)(=O)NCC(C)(C)O)ccc3C)cnc2N)cs1 [Example 59, 3-(6-Amino-5-(2-methylthiazol-4-yl)pyridin-3-yl)-N-(2-hydroxy-2-methylpropyl)-4-methylbenzenesulfonamide] | > 10 | > 10
10 | Cc1ccc(S(=O)(=O)NCC(C)(C)O)cc1-c1cnc(N)c(-c2cn(C)nn2)c1 [Example 63, 3-(6-Amino-5-(1-methyl-1H-1,2,3-triazol-4-yl)pyridin-3-yl)-N-(2-hydroxy-2-methylpropyl)-4-methylbenzenesulfonamide hydrochloride] | > 10 | 9.6
11 | Cc1ncc(-c2cc(-c3cc(S(=O)(=O)NCC4(C)COC4)ccc3C)cnc2N)o1 [Example 69, 3-(6-Amino-5-(2-methyloxazol-5-yl)pyridin-3-yl)-4-methyl-N-((3-methyloxetan-3-yl)methyl)benzenesulfonamide] | 4.4 | 2.4
12 | Cc1cccc(NS(=O)(=O)c2ccc(C)c(-c3cnc(N)c(-c4nc(C)no4)c3)c2)n1 [Example 72, 3-(6-Amino-5-(3-methyl-1,2,4-oxadiazol-5-yl)pyridin-3-yl)-4-methyl-N-(6-methylpyridin-2-yl)benzenesulfonamide] | > 10 | > 10
13 | Cc1ncc(-c2cc(-c3cc(S(N)(=O)=O)ccc3C)cnc2N)s1 [Example 74, 3-(6-Amino-5-(2-methylthiazol-5-yl)pyridin-3-yl)-4-methylbenzenesulfonamide] | 2.2 | 5
14 | Cc1ccc(S(=O)(=O)NCCC(C)(C)O)cc1-c1cnc(N)c(-c2nc(CC(F)(F)F)no2)c1 [Example 79, 3-(6-Amino-5-(3-(2,2,2-trifluoroethyl)-1,2,4-oxadiazol-5-yl)pyridin-3-yl)-N-(3-hydroxy-3-methylbutyl)-4-methylbenzenesulfonamide] | > 10 | 2.8
15 | Cc1ccc(S(=O)(=O)NCC(C)(C)O)cc1-c1cnc(N)c(-n2cncn2)c1 [Example 81, 3-(6-Amino-5-(1H-1,2,4-triazol-1-yl)pyridin-3-yl)-N-(2-hydroxy-2-methylpropyl)-4-methylbenzenesulfonamide hydrochloride] | > 9.8 | > 9.78
16 | Cc1cc(-c2cc(-c3cc(S(=O)(=O)NC[C@H]4C[C@@H](O)C4)ccc3C)cnc2N)on1 [Example 84, cis-3-(6-Amino-5-(3-methylisoxazol-5-yl)pyridin-3-yl)-N-(((1s,3s)-3-hydroxycyclobutyl)methyl)-4-methylbenzenesulfonamide] | > 10 | 2.65
17 | Cc1noc(-c2cc(-c3cc(S(=O)(=O)NCC(C)(C)O)c(F)cc3C)cnc2N)n1 [Example 85, 5-(6-Amino-5-(3-methyl-1,2,4-oxadiazol-5-yl)pyridin-3-yl)-2-fluoro-N-(2-hydroxy-2-methylpropyl)-4-methylbenzenesulfonamide] | > 10 | > 10
18 | Cc1noc(-c2cc(-c3cc(S(=O)(=O)NC[C@@H]4CCOC4)ccc3C)cnc2N)n1 [Example 87, (S)-3-(6-Amino-5-(3-methyl-1,2,4-oxadiazol-5-yl)pyridin-3-yl)-4-methyl-N-((tetrahydrofuran-3-yl)methyl)benzenesulfonamide] | > 10 | 6.1
19 | Cc1cnc(-c2cc(-c3cc(S(=O)(=O)NCCC(C)(C)O)ccc3C)cnc2N)s1 [Example 91, 3-(6-Amino-5-(5-methylthiazol-2-yl)pyridin-3-yl)-N-(3-hydroxy-3-methylbutyl)-4-methylbenzenesulfonamide] | > 10 | 0.79
20 | Cc1nc(-c2cc(-c3cc(S(=O)(=O)N[C@H]4CC[C@H](O)CC4)ccc3C)cnc2N)cs1 [Example 92, 3-(6-Amino-5-(2-methylthiazol-4-yl)pyridin-3-yl)-N-((1r,4r)-4-hydroxycyclohexyl)-4-methylbenzenesulfonamide] | > 10 | 5.1
21 | Cc1nc(-c2cc(-c3cc(S(=O)(=O)NCCC(C)(C)O)ccc3C)cnc2N)cs1 [Example 93, 3-(6-Amino-5-(2-methylthiazol-4-yl)pyridin-3-yl)-N-(3-hydroxy-3-methylbutyl)-4-methylbenzenesulfonamide] | > 10 | 7.5
22 | Cc1ccc(S(=O)(=O)NCC(C)(C)O)cc1-c1cnc(N)c(-c2ncco2)c1 [Example 94b, 3-(6-amino-5-(oxazol-2-yl)pyridin-3-yl)-N-(2-hydroxy-2-methylpropyl)-4-methylbenzenesulfonamide] | > 10 | 1.3
23 | Cc1nnc(-c2cc(-c3cc(S(=O)(=O)NCC(C)(C)O)ccc3C)cnc2N)s1 [Example 102, 3-(6-amino-5-(5-methyl-1,3,4-thiadiazol-2-yl)pyridin-3-yl)-N-(2-hydroxy-2-methylpropyl)-4-methylbenzenesulfonamide] | > 10 | 8.6
24 | Cc1ncc(-c2cc(-c3cc(S(=O)(=O)NCC4COC4)ccc3C)cnc2N)o1 [Example 104.3, 3-(6-amino-5-(2-methyloxazol-5-yl)pyridin-3-yl)-4-methyl-N-(oxetan-3-ylmethyl)benzenesulfon-amide] | 4.7 | 4.6
25 | Cc1ncc(-c2cc(-c3cc(S(=O)(=O)NCC4(O)COC4)ccc3C)cnc2N)o1 [Example 104.7, 3-(6-amino-5-(2-methyloxazol-5-yl)pyridin-3-yl)-N-((3-hydroxyoxetan-3-yl)methyl)-4-methylbenzenesulfon-amide] | 3.2 | 1.8
26 | Cc1ncc(-c2cc(-c3cc(S(=O)(=O)N[C@H]4CC[C@H](CO)CC4)ccc3C)cnc2N)o1 [Example 104.11, 3-(6-amino-5-(2-methyloxazol-5-yl)pyridin-3-yl)-N-((1r,4r)-4-(hydroxymethyl)cyclo-hexyl)-4-methylbenzenesulfon-amide] | 0.3 | 0.5
27 | Cc1ncc(-c2cc(-c3cc(S(=O)(=O)NCC4(CO)CCOCC4)ccc3C)cnc2N)o1 [Example 104.13, 3-(6-amino-5-(2-methyloxazol-5-yl)pyridin-3-yl)-N-((4-(hydroxymethyl)tetra-hydro-2H-pyran-4-yl)methyl)-4-methylbenzenesulfon-amide] | > 10 | 3.4
28 | Cc1nnc(-c2cc(-c3cc(S(=O)(=O)NCCC(C)(C)O)ccc3C)cnc2N)s1 [Example 105, 3-(6-amino-5-(5-methyl-1,3,4-thiadiazol-2-yl)pyridin-3-yl)-N-(3-hydroxy-3-methylbutyl)-4-methylbenzenesulfonamide] | > 10 | 2.9
29 | Cc1ncc(-c2cc(-c3cc(S(=O)(=O)NOCC(C)(C)O)ccc3C)cnc2N)o1 [Example 107, 3-(6-amino-5-(2-methyloxazol-5-yl)pyridin-3-yl)-N-(2-hydroxy-2-methylpropoxy)-4-methylbenzenesulfonamide hydrochloride] | > 10 | 0.66
30 | Cc1ccc(S(=O)(=O)NCC(C)(C)O)cc1-c1cnc(N)c(-c2ccn(C)n2)c1 [Example 110, 3-(6-amino-5-(1-methyl-1H-pyrazol-3-yl)pyridin-3-yl)-N-(2-hydroxy-2-methylpropyl)-4-methylbenzenesulfonamide] | > 10 | > 10
